Test results as given in patent US9051240B2, “Substituted 2-[2-(phenyl) ethylamino] alkaneamide derivatives and their use as sodium and/or calcium channel modulators” (Newron Pharmaceuticals S.P.A., priority 2007, dated 2015).

Legend:
mice [1] = experiment: Acetic acid-induced visceral pain model in mice; assay type: in vivo; settings: 20 mg/Kg p.o.
From the text: The acetic acid-induced visceral pain model is widely used in experimental research to produce abdominal contractions (Korster R et al., Fed. Pro. (1959) 18: 412; Friese N et al., Life Sci. (1997) 60: 625-634) The model consists of intraperitoneal (i.p.) injection of an irritant that induces a syndrome called ‘writhing’, which consists of contractions of the abdomen, twisting and turning of the trunk, arching of the back and extension of the hind limbs.
Animals and procedure: Male CD1 mice weighing 25-33 g were used. Each treated group was allowed 30 min to habituate to laboratory surroundings in individual polypropylene transparent boxes. The visceral pain was scored by counting the number of writhes for 10 min after i.p. injection of 0.6% acetic acid (10 ml/kg of body weight). The number of writhes after acetic acid administration were evaluated. Both complete body stretching (complete writhe) or partial stretching with a clear contracting of the abdomen (partial writhe) were counted.
Separate groups of 10 mice each were administered orally with vehicle (10 ml/kg), or different doses of the tested compound dissolved in vehicle (10 ml/kg), 5 min before acetic acid injection. Data are expressed as the mean number of writhes during the 10 min observation period.

TTXs sodium channels = experiment: TTXs-sodium channel influx assay (fluorescence, ND7/23 cell line); assay type: cell-based, rat; settings: ND7/23 cells, veratridine 100 μM; read-out: Na+ influx IC50
Procedure: ND7/23 rat dorsal root ganglion-derived cell line endogenously expresses a mixed population of TTXs sodium channels. These cells lack of TTXr sodium channels as shown by the absence of their respective transcripts.
ND7/23 cells were grown in DMEM supplemented with 10% FBS and 1 mM sodium piruvate. The cells were seeded at 50,000 cells/well on 96 poly-L-lysine-coated plates and further incubated for 18-24 h before use.
The Membrane Potential Kit Assay (Molecular Devices), based on a negatively charged fluorescent dye able to monitor changes in membrane potential caused by the sodium influx due to the channel opening, was used for the assay.
Cells were incubated with the dye loading for 30 minutes at 25° C. Then, 100 nM of the toxin Anemonia sulcata (used as enhancer of the channel opener response) alone or in the presence of TTX (as reference standard) or test compound were added for further 15 minutes.
The fluorescence (excitation:530 nm, emission: 565 nm wavelength) was measured before and after (40-45 s) the automated injection of the sodium channel opener veratridine (100 μM) using a Victor plate reader (Perkin Elmer).
The inhibition curves were calculated from 5 concentrations, each in triplicate, and the IC50 determined using linear regression analysis.

mice [2] = experiment: Amphetamine and chlordiazepoxide-induced hyperlocomotion in mice; assay type: in vivo; settings: 20.0 mg/Kg po
Procedure: In this model, mice are treated with a mixture of d-amphetamine plus an anxiolytic dose of the benzodiazepine, chlordiazepoxide (Rushton R, Steinberg H. Combined effects of chlordiazepoxide and d-amphetamine on activity of rats in an unfamiliar environment. Nature 1966; 211:1312-3; R. Arban, G. Maraia, K. Brackenborough, L. Winyard, A. Wilson, P. Gerrard, C. Large. Evaluation of the effects of lamotrigine, valproate and carbamazepine in a rodent model of mania Behavioural Brain Research, 158: 123-132). The model has been claimed to mimic some aspects of mania in bipolar disorder. Importantly, the hyperactivity induced by the mixture of d-amphetamine and chlordiazepoxide could be prevented by prior administration of the established mood stabilizer, lithium, as well as other mood stabilizers drugs (e.g. magnesium valproate and carbamazepine). […]
Amphetamine (AMP) (2.5 mg/kg) plus chlordiazepoxide hydrochloride (CDZ) (3 mg/kg/ip) were administered to male Albino Swiss mice (25-32 g) in a volume of 10 ml/kg. The locomotor activity was recorded using Opto-M3 System (Columbus Instruments) which is multi-channel activity monitor. […] The locomotor activity (ambulation and total activity count) was evaluated for 30 min. […]
Statistical analysis: the data were evaluated by an analysis of variance (ANOVA), followed, when appropriate, by individual comparison with the control using Dunnett's test.

SNL rats = experiment: Spinal nerve ligation model of neuropathic pain (thermal hyperalgesia); assay type: in vivo; settings: Rattus norvegicus, po, orally administered

| SMILES | number of writhes, significance vs. vehicle (mice [1]) | IC50 (TTXs sodium channels) | hyperactivity (ambulation over 30 min) induced by amphetamine alone (mice [2]; amphetamine 2.5 mg/kg i.p.) | hyperactivity (ambulation over 30 min) induced by the mixture of amphetamine and chlordiazepoxide (mice [2]; amphetamine 2.5 mg/kg i.p. + chlordiazepoxide 3.0 mg/Kg ip) | ED50 (SNL rats) |
| --- | --- | --- | --- | --- | --- |
| CCCCOc1cccc(CCNCC(=O)N(C)C)c1.Cl [2-[2-(3-Butoxyphenyl)-ethylamino]-N,N-dimethylacetamide hydrochloride] | p<0.01 vs. vehicle | 1.5 µM | reduced hyperactivity | reduced hyperactivity | 10.6 mg/kg |
| C[C@H](NCc1ccc(OCc2ccccc2F)cc1)C(N)=O [ralfinamide, (S)-(+)-2-[4-(2-fluorobenzyloxy)-benzylamino]-propanamide, reference compound] |  | 9.5 µM |  |  |  |
